# Laboratory results published in the NIST ThermoML archive (doi:10.1016/j.jct.2019.01.015).
# ± gives the expanded uncertainty stated by the source.
# How the values were obtained:
# [1] = Crystal; DSC
# [2] = Molar enthalpy of transition or fusion; conditions: Crystal; DSC
smiles,measurement,setting,value
C=NCC#N [methyleneaminoacetonitrile],Triple point temperature,[1],402.15 ± 1 K
same,Molar enthalpy of transition or fusion,[2],2.55 ± 0.0884 kcal/mol
